Where a SMILES comes first, the peptide text is derived from it. [ ]: non-standard residue; d: D form. Cha = N[C@@H](CC1CCCCC1)C(=O)O; Cit = NC(=O)NCCC[C@H](N)C(=O)O; Nle = CCCC[C@H](N)C(=O)O
Legend:
[1] = cited from earlier work
[2] = Ammonium sulphate (AMS) precipitation relative solubility assay (18 A variants); type: physicochemical; conditions: for PEG1/2 / Second Run: 18A variants; for PEG1/2: Figure 3b; for Second Run: precipitation midpoint, Figure S3
Procedure: Relative solubility was measured using a recently developed PEG precipitation assay. For all PYY variants the standard assay worked well, and no changes had to be implemented (Fig. 2a). […] Moreover, to ensure that the results stemming from the AMS assay are consistent and reliable, we performed the 18 A experiments twice independently on different days. The results confirmed that they are indeed replicable, and we were therefore confident to use them for the validation of our approach (Supplementary Fig. 3). […] Even at final concentrations of 0.33 mg/mL (instead of 1 mg/mL) most variants remained insoluble. We used ultracentrifugation to determine the relative solubilities of the GLP-1 variants (Table 3). To confirm the reliability of this method we replicated the results on a different day with the same stock solutions (Supplementary Fig. 4).
Aliquots of 1 mg were prepared from the purified and lyophilised stocks. […] Briefly, a precipitant is titrated in increasing concentration to a fixed concentration of protein to induce precipitation of the protein. The samples are incubated for 48 h at 4° after mixing. The samples are centrifuged and the remaining protein concentration is measured in the supernatant using a plate reader. PYY and 18 A variants were dissolved in 10 mM citrate 10 mM phosphate buffer at pH 7 for a final concentration of 3 mg/mL. The assay was run with 50% 6000 PEG for PYY and with 3.8 M AMS for 18 A. To improve throughput, a multichannel robot was employed to measure several peptides at once with the workflow being kept the same as described previously. […] 120 µL of each sample were centrifuged using an OptimaTLX Ultracentrifuge and spinning for 30 min at 500,000 g at 4 °C. The supernatant was removed, and the peptide concentration was measured using a NanoDrop.

solubility of 18 A variants (in words) ([2]; 18 A variants, pH 7)	PEG1/2 [2]	Second Run [2]	Compound	half-life [1]
–	–	–	PYY: gut hormone with a length of 36 amino acids	approximately 10 minutes
completely insoluble	–	–	CC(=O)N[C@@H](CC(=O)O)C(=O)N[C@@H](Cc1c[nH]c2ccccc12)C(=O)N[C@@H](CC1CCCCC1)C(=O)N[C@@H](CCCCN)C(=O)N[C@@H](C)C(=O)N[C@@H](Cc1ccccc1)C(=O)N[C@@H](Cc1ccc(O)cc1)C(=O)N[C@@H](CC(=O)O)C(=O)N[C@@H](CCCCN)C(=O)N[C@H](C(=O)N[C@@H](CC1CCCCC1)C(=O)N[C@@H](CCC(=O)O)C(=O)N[C@@H](CCCCN)C(=O)N[C@@H](Cc1ccccc1)C(=O)N[C@@H](CCCCN)C(=O)N[C@@H](CCC(=O)O)C(=O)N[C@@H](C)C(=O)N[C@@H](Cc1ccccc1)C(N)=O)C(C)C [Compound 17, [ntDAC]W[CHA]KAFYDKV[CHA]EKFKEA[ctFAD]] (Ac-DW[Cha]KAFYDKV[Cha]EKFKEAF-NH2)	–
–	1.901	1.251	CC(=O)N[C@@H](CC(=O)O)C(=O)N[C@@H](Cc1c[nH]c2ccccc12)C(=O)N[C@@H](Cc1ccccc1)C(=O)N[C@@H](CCCCN)C(=O)N[C@@H](C)C(=O)N[C@@H](Cc1ccccc1)C(=O)N[C@@H](Cc1ccc(O)cc1)C(=O)N[C@@H](CC(=O)O)C(=O)N[C@@H](CCCCN)C(=O)N[C@H](C(=O)N[C@@H](CCCNC(N)=O)C(=O)N[C@@H](CCC(=O)O)C(=O)N[C@@H](CCCCN)C(=O)N[C@@H](Cc1ccccc1)C(=O)N[C@@H](CCCCN)C(=O)N[C@@H](CCC(=O)O)C(=O)N[C@@H](C)C(=O)N[C@@H](Cc1ccccc1)C(N)=O)C(C)C [Compound 16] (Ac-DWFKAFYDKV[Cit]EKFKEAF-NH2)	–
–	0	0	CCCC[C@H](NC(=O)[C@H](CCC(=O)O)NC(=O)[C@H](CCCCN)NC(=O)[C@H](Cc1ccccc1)NC(=O)[C@H](CCCCN)NC(=O)[C@H](CCC(=O)O)NC(=O)[C@H](C)NC(=O)[C@@H](NC(=O)[C@H](CCCCN)NC(=O)[C@H](CC(=O)O)NC(=O)[C@H](Cc1ccc(O)cc1)NC(=O)[C@H](Cc1ccccc1)NC(=O)[C@H](CC1CCCCC1)NC(=O)[C@H](CCCCN)NC(=O)[C@H](Cc1ccccc1)NC(=O)[C@H](Cc1c[nH]c2ccccc12)NC(=O)[C@H](CC(=O)O)NC(C)=O)C(C)C)C(=O)N[C@@H](Cc1ccccc1)C(N)=O [Cha, Nle] (Ac-DWFK[Cha]FYDKVAEKFKE[Nle]F-NH2)	–

From paper PMC10656490, “Sequence-based prediction of the intrinsic solubility of peptides containing non-natural amino acids” (Nature Communications, 2023)
